Consider nine compounds from patent US11076594B2, “Pyrazolone compound or salt thereof, preparation method therefor, herbicide composition and use thereof” (QINGDAO KINGAGROOT CHEMICAL COMPOUNDS CO., LTD., priority 2015, dated 2021).

What all share (assay type): in vivo
Conditions in all cases: post-emergence spray at 4-5 leaf stage, 250 g/ha active ingredient with 450 kg/ha water, rated after 3 weeks in greenhouse

One data set deals with rice. Nature of the data set: post-emergence stage experiment, crop (Table 1). More on the design: key: Level 10: completely dead; Level 9: above 95% growth control rate; Level 8: above 90% growth control rate; Level 7: above 80% growth control rate; Level 6: above 70% growth control rate; Level 5: above 60% growth control rate; Level 4: above 50% growth control rate; Level 3: above 20% growth control rate; Level 2: 5%-20% growth control rate; Level 1: below 5% growth control rate. Put shortly: (§1)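 Fresh-weight-based growth control rate was assessed 3 weeks after spraying. Test compound, dissolved in acetone, with tween 80 added and diluted in water, was sprayed onto greenhouse-grown, pot-cultured weeds and crop plants at 4-5 leaves, 2-3 weeks post-sowing.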

In another data set the test system is foxtail. Briefly: weed control effect in post-emergence stage (Table 1). More on the design: key: Level 10: completely dead; Level 9: above 95% growth control rate; Level 8: above 90% growth control rate; Level 7: above 80% growth control rate; Level 6: above 70% growth control rate; Level 5: above 60% growth control rate; Level 4: above 50% growth control rate; Level 3: above 20% growth control rate; Level 2: 5%-20% growth control rate; Level 1: below 5% growth control rate. Put shortly: as §1

The next data set has as its system crab grass. The data set is described as above. More on the design: key: Level 10: completely dead; Level 9: above 95% growth control rate; Level 8: above 90% growth control rate; Level 7: above 80% growth control rate; Level 6: above 70% growth control rate; Level 5: above 60% growth control rate; Level 4: above 50% growth control rate; Level 3: above 20% growth control rate; Level 2: 5%-20% growth control rate; Level 1: below 5% growth control rate. Summed up: as §1

A further data set relates to rorippa indica. Described as above. More on the design: key: Level 10: completely dead; Level 9: above 95% growth control rate; Level 8: above 90% growth control rate; Level 7: above 80% growth control rate; Level 6: above 70% growth control rate; Level 5: above 60% growth control rate; Level 4: above 50% growth control rate; Level 3: above 20% growth control rate; Level 2: 5%-20% growth control rate; Level 1: below 5% growth control rate. Summed up: as §1

For a further data set, the system named is bidens bipinnata. The data set is described as above. Also on record: key: Level 10: completely dead; Level 9: above 95% growth control rate; Level 8: above 90% growth control rate; Level 7: above 80% growth control rate; Level 6: above 70% growth control rate; Level 5: above 60% growth control rate; Level 4: above 50% growth control rate; Level 3: above 20% growth control rate; Level 2: 5%-20% growth control rate; Level 1: below 5% growth control rate. Put shortly: as §1

Another data set has as its system Indian mallow. The description is as above. More on the design: key: Level 10: completely dead; Level 9: above 95% growth control rate; Level 8: above 90% growth control rate; Level 7: above 80% growth control rate; Level 6: above 70% growth control rate; Level 5: above 60% growth control rate; Level 4: above 50% growth control rate; Level 3: above 20% growth control rate; Level 2: 5%-20% growth control rate; Level 1: below 5% growth control rate. Summed up: as §1

The test system of another data set is echinochloa. The description is as above. More on the design: key: Level 10: completely dead; Level 9: above 95% growth control rate; Level 8: above 90% growth control rate; Level 7: above 80% growth control rate; Level 6: above 70% growth control rate; Level 5: above 60% growth control rate; Level 4: above 50% growth control rate; Level 3: above 20% growth control rate; Level 2: 5%-20% growth control rate; Level 1: below 5% growth control rate. Put shortly:
as §1

The subject of the next data set is wheat. Briefly: post-emergence stage experiment, crop (Table 1). Put shortly:
as §1

The test system of another data set is corn. Briefly: post-emergence stage experiment, crop (Table 1). Put shortly:
as §1

On to `Cc1nn(C)c(OC(=O)c2cnn(C)c2)c1C(=O)c1ccc(C(F)(F)F)c(-n2cccn2)c1Cl` [Compound 070], for which the “effect on crop, Rice (level)” value with rice is recorded as 3 (Level 3: above 20% growth control rate). Further, the “weed control effect, Green foxtail (level)” value with foxtail is listed as 9 (Level 9: above 95% growth control rate). In addition, the “weed control effect, Crab grass (level)” value in the data set on crab grass was 4 (Level 4: above 50% growth control rate). In addition, the “weed control effect, Rorippa indica (level)” value in the data set on rorippa indica is given as 5 (Level 5: above 60% growth control rate). The “weed control effect, Bidens bipinnata (level)” value in the data set with bidens bipinnata is on record as 5 (Level 5: above 60% growth control rate). Further, the “weed control effect, Indian mallow (level)” value in the data set on Indian mallow was found to be 10. Also, the “weed control effect, Echinochloa (level)” value in the data set with echinochloa is given as 6 (Level 6: above 70% growth control rate). Besides, the “effect on crop, Wheat (level)” value with wheat is recorded as 0. The “effect on crop, Corn (level)” value in the data set with corn is recorded as 3 (Level 3: above 20% growth control rate).

Turning to `CCn1nc(C)c(C(=O)c2ccc(C(F)(F)F)c(N3CCCC3=O)c2Cl)c1OC(=O)c1cn(C)nc1C` [Compound 099], in the data set with rice, the “effect on crop, Rice (level)” value is recorded as 10. Further, the “weed control effect, Green foxtail (level)” value in the data set on foxtail stood at 10. Also, the “weed control effect, Crab grass (level)” value with crab grass is 10. Besides, the “weed control effect, Rorippa indica (level)” value in the data set with rorippa indica stood at 10. Also, the “weed control effect, Bidens bipinnata (level)” value in the data set with bidens bipinnata was determined as 10. Moreover, in the data set on Indian mallow, the “weed control effect, Indian mallow (level)” value is 3 (Level 3: above 20% growth control rate). Further, in the data set with echinochloa, the “weed control effect, Echinochloa (level)” value is 10. Moreover, the “effect on crop, Wheat (level)” value with wheat is listed as 4 (Level 4: above 50% growth control rate). Besides, the “effect on crop, Corn (level)” value with corn was 4 (Level 4: above 50% growth control rate).

Consider `Cn1ncc(C(=O)c2ccc(C(F)(F)F)c(N3CCCCC3=O)c2Cl)c1O` [Compound 029], for which the “effect on crop, Rice (level)” value in the data set with rice is listed as 1 (Level 1: below 5% growth control rate). In addition, the “weed control effect, Green foxtail (level)” value with foxtail is reported as 9 (Level 9: above 95% growth control rate). Moreover, the “weed control effect, Crab grass (level)” value with crab grass is listed as 7 (Level 7: above 80% growth control rate). The “weed control effect, Rorippa indica (level)” value in the data set with rorippa indica was 7 (Level 7: above 80% growth control rate). In addition, the “weed control effect, Bidens bipinnata (level)” value in the data set on bidens bipinnata is listed as 7 (Level 7: above 80% growth control rate). Moreover, in the data set on Indian mallow, the “weed control effect, Indian mallow (level)” value was 7 (Level 7: above 80% growth control rate). In addition, the “weed control effect, Echinochloa (level)” value with echinochloa is on record as 5 (Level 5: above 60% growth control rate). The “effect on crop, Wheat (level)” value in the data set with wheat is 3 (Level 3: above 20% growth control rate). In the data set on corn, the “effect on crop, Corn (level)” value is listed as 7 (Level 7: above 80% growth control rate).

Regarding `CCOC(=O)Oc1c(C(=O)c2ccc(C(F)(F)F)c(N3CCCCC3=O)c2Cl)c(C)nn1C` [Compound 036], the “effect on crop, Rice (level)” value with rice was 8 (Level 8: above 90% growth control rate). Besides, in the data set with foxtail, the “weed control effect, Green foxtail (level)” value is given as 10. Further, the “weed control effect, Crab grass (level)” value with crab grass is 5 (Level 5: above 60% growth control rate). For the same compound, the “weed control effect, Rorippa indica (level)” value in the data set with rorippa indica is 5 (Level 5: above 60% growth control rate). Also, in the data set on bidens bipinnata, the “weed control effect, Bidens bipinnata (level)” value was 6 (Level 6: above 70% growth control rate). Moreover, the “weed control effect, Indian mallow (level)” value in the data set with Indian mallow is 5 (Level 5: above 60% growth control rate). The “weed control effect, Echinochloa (level)” value in the data set with echinochloa is 7 (Level 7: above 80% growth control rate). For the same compound, the “effect on crop, Wheat (level)” value in the data set with wheat is given as 3 (Level 3: above 20% growth control rate). For the same compound, the “effect on crop, Corn (level)” value in the data set with corn was determined as 0.

For `CCOc1c(C(=O)Oc2c(C(=O)c3ccc(C(F)(F)F)c(N4CCCCC4=O)c3Cl)cnn2C)cnn1C` [Compound 032], in the data set with rice, the “effect on crop, Rice (level)” value is 8 (Level 8: above 90% growth control rate). Besides, the “weed control effect, Green foxtail (level)” value in the data set on foxtail was determined as 10. Further, in the data set with crab grass, the “weed control effect, Crab grass (level)” value is on record as 10. Besides, in the data set on rorippa indica, the “weed control effect, Rorippa indica (level)” value was determined as 10. In the data set with bidens bipinnata, the “weed control effect, Bidens bipinnata (level)” value is reported as 6 (Level 6: above 70% growth control rate). Besides, the “weed control effect, Indian mallow (level)” value in the data set on Indian mallow was determined as 10. The “weed control effect, Echinochloa (level)” value in the data set with echinochloa is 9 (Level 9: above 95% growth control rate). Also, the “effect on crop, Wheat (level)” value with wheat was 1 (Level 1: below 5% growth control rate). Further, in the data set on corn, the “effect on crop, Corn (level)” value is reported as 4 (Level 4: above 50% growth control rate).

Turning to `CCc1nn(CC)c(OC(=O)c2cn(C)nc2C)c1C(=O)c1ccc(C(F)(F)F)c(N2CCCCCC2=O)c1Cl` [Compound 123], the “effect on crop, Rice (level)” value in the data set on rice is listed as 7 (Level 7: above 80% growth control rate). Besides, the “weed control effect, Green foxtail (level)” value in the data set on foxtail is 6 (Level 6: above 70% growth control rate). The “weed control effect, Crab grass (level)” value in the data set with crab grass is reported as 3 (Level 3: above 20% growth control rate). The “weed control effect, Rorippa indica (level)” value with rorippa indica is recorded as 3 (Level 3: above 20% growth control rate). Further, in the data set with bidens bipinnata, the “weed control effect, Bidens bipinnata (level)” value is 7 (Level 7: above 80% growth control rate). Also, the “weed control effect, Indian mallow (level)” value with Indian mallow stood at 10. The “weed control effect, Echinochloa (level)” value with echinochloa worked out at 10. In addition, the “effect on crop, Wheat (level)” value in the data set with wheat is 1 (Level 1: below 5% growth control rate). For the same compound, in the data set on corn, the “effect on crop, Corn (level)” value is reported as 4 (Level 4: above 50% growth control rate).

On to `CCn1ncc(C(=O)c2ccc(C(F)(F)F)c(N3CCCCC3=O)c2Cl)c1OC(=O)c1cn(C)nc1C` [Compound 107], for which the “effect on crop, Rice (level)” value in the data set on rice is 8 (Level 8: above 90% growth control rate). Also, in the data set with foxtail, the “weed control effect, Green foxtail (level)” value was 10. The “weed control effect, Crab grass (level)” value with crab grass is 8 (Level 8: above 90% growth control rate). Besides, in the data set with rorippa indica, the “weed control effect, Rorippa indica (level)” value was 6 (Level 6: above 70% growth control rate). In addition, the “weed control effect, Bidens bipinnata (level)” value in the data set on bidens bipinnata was 9 (Level 9: above 95% growth control rate). For the same compound, the “weed control effect, Indian mallow (level)” value with Indian mallow is given as 10. In addition, in the data set with echinochloa, the “weed control effect, Echinochloa (level)” value amounted to 10. In the data set on wheat, the “effect on crop, Wheat (level)” value is 5 (Level 5: above 60% growth control rate). The “effect on crop, Corn (level)” value with corn was 5 (Level 5: above 60% growth control rate).

Take `CCc1nn(CC)c(OC(=O)c2cn(C)nc2C)c1C(=O)c1ccc(C(F)(F)F)c(-n2cccn2)c1Cl` [Compound 133]: the “effect on crop, Rice (level)” value with rice is 8 (Level 8: above 90% growth control rate). Further, in the data set with foxtail, the “weed control effect, Green foxtail (level)” value was 8 (Level 8: above 90% growth control rate). The “weed control effect, Crab grass (level)” value in the data set on crab grass is recorded as 2 (Level 2: 5%-20% growth control rate). The “weed control effect, Rorippa indica (level)” value in the data set with rorippa indica was 4 (Level 4: above 50% growth control rate). Besides, the “weed control effect, Bidens bipinnata (level)” value in the data set on bidens bipinnata is on record as 8 (Level 8: above 90% growth control rate). For the same compound, the “weed control effect, Indian mallow (level)” value in the data set with Indian mallow came to 10. Moreover, the “weed control effect, Echinochloa (level)” value in the data set on echinochloa worked out at 10. The “effect on crop, Wheat (level)” value with wheat is recorded as 2 (Level 2: 5%-20% growth control rate). For the same compound, the “effect on crop, Corn (level)” value in the data set with corn is 4 (Level 4: above 50% growth control rate).

For `CCn1nc(C2CC2)c(C(=O)c2ccc(C(F)(F)F)c(-n3cc(C)cn3)c2Cl)c1OC(=O)c1cn(C)nc1C` [Compound 145], the “effect on crop, Rice (level)” value with rice is 9 (Level 9: above 95% growth control rate). In the data set on foxtail, the “weed control effect, Green foxtail (level)” value is listed as 8 (Level 8: above 90% growth control rate). Further, in the data set on crab grass, the “weed control effect, Crab grass (level)” value is recorded as 4 (Level 4: above 50% growth control rate). In addition, the “weed control effect, Rorippa indica (level)” value in the data set on rorippa indica was 1 (Level 1: below 5% growth control rate). In addition, the “weed control effect, Bidens bipinnata (level)” value with bidens bipinnata was found to be 10. For the same compound, the “weed control effect, Indian mallow (level)” value in the data set on Indian mallow was 4 (Level 4: above 50% growth control rate). In addition, the “weed control effect, Echinochloa (level)” value in the data set with echinochloa is 10. Also, the “effect on crop, Wheat (level)” value in the data set with wheat is 1 (Level 1: below 5% growth control rate). The “effect on crop, Corn (level)” value with corn was 0.
